This is an account of results in ChEMBL document CHEMBL1145206, “Design, synthesis and structure-activity relationships of novel taxane-based multidrug resistance reversal agents” (2005).

The test system of this assay is MDA-MB-435. Put plainly: MDR-reversal activity evaluated against the resistant human breast tumor cell line MDA-435/LCC6-MDR. In kind it is functional. The arrangement: concentration or dose not given beside the values.
In the case of `CC(=O)O[C@H]1C(=O)[C@]2(C)[C@@H](OC(=O)/C=C/c3ccc(OC(=O)c4cc5ccccc5[nH]4)cc3)C[C@H]3OC[C@@]3(OC(C)=O)[C@H]2[C@H](OC(=O)c2ccccc2)[C@]23OC(=O)O[C@H]2[C@H](OC(C)=O)C(C)=C1C3(C)C`, the Reduction is 43%. The result for `CC(=O)O[C@H]1C[C@@]2(O)[C@@H](OC(=O)c3ccccc3)[C@@H]3[C@]4(OC(C)=O)CO[C@@H]4C[C@H](OC(=O)/C=C/c4ccc(C(=O)c5ccccc5)cc4)[C@@]3(C)C(=O)[C@H](OC(=O)OCc3ccccc3)C(=C1C)C2(C)C` reads 10%; that for `CC(=O)O[C@@]12CO[C@@H]1C[C@H](O)[C@@]1(C)C(=O)[C@H](O)C3=C(C)[C@@H](OC(=O)CCc4ccc5ccccc5c4)C[C@@](O)([C@@H](OC(=O)c4ccccc4)[C@H]21)C3(C)C`, 37%. For `CC(=O)O[C@H]1C(=O)[C@]2(C)[C@@H](OC(=O)CC3c4ccccc4-c4ccccc43)C[C@H]3OC[C@@]3(OC(C)=O)[C@H]2[C@H](OC(=O)c2ccccc2)[C@]2(O)C[C@H](OC(C)=O)C(C)=C1C2(C)C`, the Reduction worked out at 67%.

Turning to `CC(=O)O[C@H]1C[C@@]2(O)[C@@H](OC(=O)c3ccccc3)[C@@H]3[C@]4(OC(C)=O)CO[C@@H]4C[C@H](OC(=O)/C=C/c4ccc(C(=O)c5ccccc5)cc4)[C@@]3(C)C(=O)[C@H](OC(=O)c3ccccc3)C(=C1C)C2(C)C`, the Reduction turned out to be 51%.

Take `CC(=O)O[C@H]1C(=O)[C@]2(C)[C@@H](OC(=O)COc3cccc4ccccc34)C[C@H]3OC[C@@]3(OC(C)=O)[C@H]2[C@H](OC(=O)c2ccccc2)[C@]2(O)C[C@H](OC(C)=O)C(C)=C1C2(C)C`: the Reduction came out at 60%.

Consider `CC(=O)O[C@H]1C(=O)[C@]2(C)[C@@H](OC(=O)c3ccc(C(=O)c4ccccc4)cc3)C[C@H]3OC[C@@]3(OC(C)=O)[C@H]2[C@H](OC(=O)c2ccccc2)[C@]2(O)C[C@H](OC(C)=O)C(C)=C1C2(C)C`, for which the Reduction was 88%. Then `CC(=O)O[C@H]1C[C@@]2(O)[C@@H](OC(=O)c3ccccc3)[C@@H]3[C@]4(OC(C)=O)CO[C@@H]4C[C@H](OC(C)=O)[C@@]3(C)C(=O)[C@H](OC(=O)/C=C/c3ccc(Sc4ccccc4)cc3)C(=C1C)C2(C)C`, with 28%; and `CC(=O)O[C@H]1C(=O)[C@]2(C)[C@@H](OC(=O)c3cnc4ccccc4c3)C[C@H]3OC[C@@]3(OC(C)=O)[C@H]2[C@H](OC(=O)c2ccccc2)[C@]2(O)C[C@H](OC(C)=O)C(C)=C1C2(C)C`, with 41%. Then `CC(=O)O[C@H]1C(=O)[C@]2(C)[C@@H](OC(=O)/C=C/c3ccc(OC(=O)c4ccccc4)cc3)C[C@H]3OC[C@@]3(OC(C)=O)[C@H]2[C@H](OC(=O)c2ccccc2)[C@]2(O)C[C@H](OC(C)=O)C(C)=C1C2(C)C`, with 91%; and `CC(=O)O[C@H]1C(=O)[C@]2(C)[C@@H](OC(=O)CCCCc3ccc(C(=O)c4ccccc4)cc3)C[C@H]3OC[C@@]3(OC(C)=O)[C@H]2[C@H](OC(=O)c2ccccc2)[C@]23OC(=O)O[C@H]2[C@H](OC(C)=O)C(C)=C1C3(C)C`, with 0%. Then `CC(=O)O[C@H]1C(=O)[C@]2(C)[C@@H](OC(C)=O)C[C@H]3OC[C@@]3(OC(C)=O)[C@H]2[C@H](OC(=O)/C=C/c2ccc(C(=O)c3ccccc3)cc2)[C@]2(O)C[C@H](OC(C)=O)C(C)=C1C2(C)C`, with 27%; and `CC(=O)O[C@H]1C(=O)[C@]2(C)[C@@H](OC(=O)Cn3ccc4ccccc43)C[C@H]3OC[C@@]3(OC(C)=O)[C@H]2[C@H](OC(=O)c2ccccc2)[C@]2(O)C[C@H](OC(C)=O)C(C)=C1C2(C)C`, with 83%; and `COc1ccc(C(=O)Oc2ccc(/C=C/C(=O)O[C@H]3C[C@H]4OC[C@@]4(OC(C)=O)[C@H]4[C@H](OC(=O)c5ccccc5)[C@]5(O)C[C@H](OC(C)=O)C(C)=C([C@@H](OC(C)=O)C(=O)[C@]34C)C5(C)C)cc2)cc1`, with 39%. As to `CC(=O)O[C@H]1C(=O)[C@]2(C)[C@@H](OC(=O)CCc3ccc(Cc4ccccc4)cc3)C[C@H]3OC[C@@]3(OC(C)=O)[C@H]2[C@H](OC(=O)c2ccccc2)[C@]2(O)C[C@H](OC(C)=O)C(C)=C1C2(C)C`, the Reduction was 16%.

With `CC(=O)O[C@H]1C(=O)[C@]2(C)[C@@H](OC(=O)/C=C/c3ccc(Oc4ccccc4)cc3)C[C@H]3OC[C@@]3(OC(C)=O)[C@H]2[C@H](OC(=O)c2ccccc2)[C@]2(O)C[C@H](OC(C)=O)C(C)=C1C2(C)C`, the Reduction is reported as 90%. The result for `CC(=O)O[C@H]1C(=O)[C@]2(C)[C@@H](OC(=O)COc3ccc4ccccc4c3)C[C@H]3OC[C@@]3(OC(C)=O)[C@H]2[C@H](OC(=O)c2ccccc2)[C@]2(O)C[C@H](OC(C)=O)C(C)=C1C2(C)C` reads 86%; that for `CC(=O)O[C@H]1C(=O)[C@]2(C)[C@@H](OC(=O)/C=C/c3ccc(OC(=O)c4ccc5ccccc5c4)cc3)C[C@H]3OC[C@@]3(OC(C)=O)[C@H]2[C@H](OC(=O)c2ccccc2)[C@]2(O)C[C@H](OC(C)=O)C(C)=C1C2(C)C`, 29%; that for `CC(=O)O[C@H]1C(=O)[C@]2(C)[C@@H](OC(=O)CCc3ccc(C(O)c4ccccc4)cc3)C[C@H]3OC[C@@]3(OC(C)=O)[C@H]2[C@H](OC(=O)c2ccccc2)[C@]2(O)C[C@H](OC(C)=O)C(C)=C1C2(C)C` (stereo partly specified), 48%. On to `CC(=O)O[C@H]1C(=O)[C@]2(C)[C@@H](OC(=O)/C=C/c3ccc(Oc4ccccc4)cc3)C[C@H]3OC[C@@]3(OC(C)=O)[C@H]2[C@H](OC(=O)c2ccccc2)[C@]23OC(=O)O[C@H]2[C@H](OC(C)=O)C(C)=C1C3(C)C`, for which the Reduction amounted to 90%. Take `CC(=O)O[C@H]1C(=O)[C@]2(C)[C@@H](OC(=O)Cc3ccc(C(=O)c4ccccc4)cc3)C[C@H]3OC[C@@]3(OC(C)=O)[C@H]2[C@H](OC(=O)c2ccccc2)[C@]2(O)C[C@H](OC(C)=O)C(C)=C1C2(C)C`: the Reduction was 41%. Then `C=C(c1ccccc1)c1cccc(/C=C/C(=O)O[C@H]2C[C@H]3OC[C@@]3(OC(C)=O)[C@H]3[C@H](OCc4ccccc4)[C@]4(O)C[C@H](OC(C)=O)C(C)=C([C@@H](OC(C)=O)C(=O)[C@]23C)C4(C)C)c1`, with 52%; and `CC(=O)O[C@H]1C(=O)[C@]2(C)[C@@H](OC(=O)/C=C/c3ccc(Sc4ccccc4)cc3)C[C@H]3OC[C@@]3(OC(C)=O)[C@H]2[C@H](OC(=O)c2ccccc2)[C@]23OC(=O)O[C@H]2[C@H](OC(C)=O)C(C)=C1C3(C)C`, with 63%; and `CC(=O)O[C@H]1C[C@@]2(O)[C@@H](OC(=O)c3ccccc3)[C@@H]3[C@]4(OC(C)=O)CO[C@@H]4C[C@H](OC(C)=O)[C@@]3(C)C(=O)[C@H](OC(=O)/C=C/c3cccc(NC(=O)c4ccccc4)c3)C(=C1C)C2(C)C`, with 43%. The result for `COc1ccc(CC(=O)O[C@H]2C(=O)[C@]3(C)[C@@H](OC(=O)/C=C/c4ccc(C(=O)c5ccccc5)cc4)C[C@H]4OC[C@@]4(OC(C)=O)[C@H]3[C@H](OC(=O)c3ccccc3)[C@]3(O)C[C@H](OC(C)=O)C(C)=C2C3(C)C)cc1` reads 7%. As for `CC(=O)O[C@H]1C[C@@]2(O)[C@@H](OC(=O)c3ccccc3)[C@@H]3[C@]4(OC(C)=O)CO[C@@H]4C[C@H](OC(=O)/C=C/c4ccc(C(=O)c5ccccc5)cc4)[C@@]3(C)C(=O)[C@H](OC(=O)/C=C/c3ccccc3)C(=C1C)C2(C)C`, the Reduction turned out to be 11%.
